Values joined by “and” are separate entries in the source; they are usually repeats but may differ in a detail not shown here. Equal values may be shown once. Toxic doses and inconclusive results are not listed.
Tested on: CD2F1 mice, L1210 leukemia ip, survival T/C
Assay: NCI In Vivo Anticancer Drug Screen. Data for tumor model L1210 Leukemia (intraperitoneal) in CD2F1 (CDF1) mice
Details: higher = longer survival
Outline: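 Transplantable tumor in mice; compound-treated vs vehicle-treated groups. Read-out = treated/control ratio of the measured endpoint.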

[1] = endpoint: mean survival time, dose: 100.0 mg/kg/injection, schedule: Q04DX003 (ip), vehicle: saline with Tween-80
[2] = endpoint: mean survival time, dose: 200.0 mg/kg/injection, schedule: Q04DX003 (ip), vehicle: saline with Tween-80
[3] = endpoint: mean survival time, dose: 400.0 mg/kg/injection, schedule: Q04DX003 (ip), vehicle: saline with Tween-80
[4] = endpoint: mean survival time, dose: 100.0 mg/kg/injection, schedule: Q01DX001 (ip), vehicle: saline with Tween-80
[5] = endpoint: mean survival time, dose: 200.0 mg/kg/injection, schedule: Q01DX001 (ip), vehicle: saline with Tween-80
[6] = endpoint: mean survival time, dose: 50.0 mg/kg/injection, schedule: Q01DX009 (ip), vehicle: saline with Tween-80
[7] = endpoint: mean survival time, dose: 100.0 mg/kg/injection, schedule: Q01DX009 (ip), vehicle: saline with Tween-80
[8] = endpoint: mean survival time, dose: 200.0 mg/kg/injection, schedule: Q01DX009 (ip), vehicle: saline with Tween-80
[9] = endpoint: mean survival time, dose: 400.0 mg/kg/injection, schedule: Q01DX009 (ip), vehicle: saline with Tween-80

`COC12[C@@H]3N[C@@H]3CN1C1=C(C(=O)C(N3CCCC(O)C3)=C(C)C1=O)[C@@H]2COC(N)=O` (stereo not given in full) was tested, and the T/C (endpoint: median survival time, dose: 3.0 mg/kg/injection, schedule: Q01DX001 (ip), vehicle: saline) was 106 % of control, the T/C (endpoint: median survival time, dose: 6.0 mg/kg/injection, schedule: Q01DX001 (ip), vehicle: saline) was 111 % of control and the T/C (endpoint: median survival time, dose: 12.0 mg/kg/injection, schedule: Q01DX001 (ip), vehicle: saline) was 118 % of control and 98 % of control. The T/C (endpoint: median survival time, dose: 24.0 mg/kg/injection, schedule: Q01DX001 (ip), vehicle: saline) was 108 % of control and the T/C (endpoint: median survival time, dose: 48.0 mg/kg/injection, schedule: Q01DX001 (ip), vehicle: saline) was 112 % of control.
For `CCC(CCC(C)C1CCC2C3CC=C4CC(OC(=O)CCC(=O)O)CCC4(C)C3CCC12C)C(C)C` (stereo not given), the T/C [1] was 90 % of control, the T/C [2] was 90 % of control and the T/C [3] was 93 % of control.
In the case of `C=CC(=C)CCC=C(C)C`, the T/C (endpoint: mean survival time, dose: 50.0 mg/kg/injection, schedule: Q01DX009 (ip), vehicle: acetone) is reported as 96 % of control, the T/C (endpoint: mean survival time, dose: 100.0 mg/kg/injection, schedule: Q01DX009 (ip), vehicle: acetone) is reported as 91 % of control and the T/C (endpoint: mean survival time, dose: 200.0 mg/kg/injection, schedule: Q01DX009 (ip), vehicle: acetone) is reported as 96 % of control.
For `Cc1cn(C2CC(O)C(CO)O2)c(=O)[n]([Hg][c]2ccccc2)c1=O` (stereo not given), the T/C (endpoint: median survival time, dose: 0.79 mg/kg/injection, schedule: Q01DX005 (ip), vehicle: saline) was 110 % of control, the T/C (endpoint: median survival time, dose: 1.56 mg/kg/injection, schedule: Q01DX005 (ip), vehicle: saline) was 103 % of control and the T/C (endpoint: median survival time, dose: 3.12 mg/kg/injection, schedule: Q01DX005 (ip), vehicle: saline) was 112 % of control. For the same molecule, the T/C (endpoint: median survival time, dose: 6.25 mg/kg/injection, schedule: Q01DX005 (ip), vehicle: saline) was 103 % of control and the T/C (endpoint: median survival time, dose: 12.5 mg/kg/injection, schedule: Q01DX005 (ip), vehicle: saline) was 103 % of control.
With `CCOc1nc2nc[nH]c(=O)c2cc1C#N` the T/C (endpoint: mean survival time, dose: 12.5 mg/kg/injection, schedule: Q04DX002 (ip), vehicle: saline with Tween-80) was 90 % of control, the T/C (endpoint: mean survival time, dose: 25.0 mg/kg/injection, schedule: Q04DX002 (ip), vehicle: saline with Tween-80) was 93 % of control and the T/C (endpoint: mean survival time, dose: 50.0 mg/kg/injection, schedule: Q04DX002 (ip), vehicle: saline with Tween-80) was 104 % of control. The T/C [4] was 107 % of control and the T/C [5] was 95 % of control.
For `CCOc1ccc(-n2c(O)c(N=Nc3ccccc3OC)c(=O)n(-c3ccccc3)c2=S)cc1`, the T/C [4] was 93 % of control and the T/C [5] was 91 % of control.
With `CN(C)CCCN=Cc1ccc(O)cc1O.CN(C)CCCN=Cc1ccc(O)cc1O.[Ni+2]` the T/C (endpoint: mean survival time, dose: 12.5 mg/kg/injection, schedule: Q01DX009 (ip), vehicle: saline with Tween-80) was 94 % of control, the T/C (endpoint: mean survival time, dose: 25.0 mg/kg/injection, schedule: Q01DX009 (ip), vehicle: saline with Tween-80) was 93 % of control and the T/C [6] was 94 % of control.
In the case of `CC(=O)c1cc(F)ccc1O`, the T/C [7] is reported as 92 % of control, the T/C [8] is reported as 111 % of control and the T/C [9] is reported as 88 % of control.
With `O=C([O-])[O-].O=[N+]([O-])O.[Co+3].[NH2-].[NH2-].[NH2-].[NH2-]` the T/C [9] was 93 % of control and the T/C [3] was 94 % of control.
With `CCCCC(=O)OCC(=O)[C@]1(O)Cc2c(O)c3c(c(O)c2[C@@H](OC2CC(NC(=O)C(F)(F)F)C(O)C(C)O2)C1)C(=O)c1c(OC)cccc1C3=O` (stereo not given in full) the T/C (endpoint: mean survival time, dose: 4.0 mg/kg/injection, schedule: Q01DX009 (ip), vehicle: Klucel (hydroxypropylcellulose) (HPC)) was 113 % of control, the T/C (endpoint: mean survival time, dose: 4.0 mg/kg/injection, schedule: Q01DX009 (ip), vehicle: water) was 97 % of control and the T/C (endpoint: mean survival time, dose: 8.0 mg/kg/injection, schedule: Q01DX009 (ip), vehicle: Klucel (hydroxypropylcellulose) (HPC)) was 118 % of control. For the same molecule, the T/C (endpoint: mean survival time, dose: 8.0 mg/kg/injection, schedule: Q01DX009 (ip), vehicle: water) was 101 % of control, the T/C (endpoint: mean survival time, dose: 16.0 mg/kg/injection, schedule: Q01DX009 (ip), vehicle: water) was 106 % of control and the T/C (endpoint: mean survival time, dose: 32.0 mg/kg/injection, schedule: Q01DX009 (ip), vehicle: Klucel (hydroxypropylcellulose) (HPC)) was 150 % of control. For the same molecule, the T/C (endpoint: mean survival time, dose: 32.0 mg/kg/injection, schedule: Q01DX009 (ip), vehicle: water) was 111 % of control, the T/C (endpoint: mean survival time, dose: 64.0 mg/kg/injection, schedule: Q01DX009 (ip), vehicle: Klucel (hydroxypropylcellulose) (HPC)) was 167 % of control and the T/C (endpoint: mean survival time, dose: 64.0 mg/kg/injection, schedule: Q01DX009 (ip), vehicle: water) was 113 % of control. For the same molecule, the T/C (endpoint: mean survival time, dose: 128.0 mg/kg/injection, schedule: Q01DX009 (ip), vehicle: Klucel (hydroxypropylcellulose) (HPC)) was 250 % of control, the T/C (endpoint: median survival time, dose: 13.0 mg/kg/injection, schedule: Q10HX004 (ip), vehicle: other) was 100 % of control and the T/C (endpoint: median survival time, dose: 21.6 mg/kg/injection, schedule: Q10HX004 (ip), vehicle: other) was 102 % of control. For the same molecule, the T/C (endpoint: median survival time, dose: 36.0 mg/kg/injection, schedule: Q10HX004 (ip), vehicle: other) was 114 % of control, the T/C (endpoint: median survival time, dose: 60.0 mg/kg/injection, schedule: Q10HX004 (ip), vehicle: other) was 118 % of control and the T/C (endpoint: median survival time, dose: 100.0 mg/kg/injection, schedule: Q10HX004 (ip), vehicle: other) was 153 % of control.
`O=C(CNC(=O)Nc1cccc(C(F)(F)F)c1)N/N=C/c1cccs1` was tested, and the T/C [6] was 88 % of control, the T/C [7] was 96 % of control and the T/C [8] was 92 % of control.
`O=C(Nc1ccc2c3c(ccc(C(=O)O)c13)CC2)c1ccccc1` was tested, and the T/C [1] was 97 % of control, the T/C [2] was 95 % of control and the T/C [3] was 104 % of control.
With `CCOC(=O)NCC(Cl)CP(=O)(c1ccccc1)c1ccccc1` (stereo not given) the T/C [4] was 92 % of control, the T/C [7] was 97 % of control and the T/C [5] was 92 % of control. The T/C [8] was 97 % of control, the T/C (endpoint: mean survival time, dose: 400.0 mg/kg/injection, schedule: Q01DX001 (ip), vehicle: saline with Tween-80) was 92 % of control and the T/C [9] was 96 % of control.
With `O=C(/C=C/c1ccc(Cl)c(Cl)c1)c1ccccc1` the T/C (endpoint: mean survival time, dose: 50.0 mg/kg/injection, schedule: Q01DX009 (ip), vehicle: Klucel (hydroxypropylcellulose) (HPC)) was 105 % of control and the T/C (endpoint: mean survival time, dose: 100.0 mg/kg/injection, schedule: Q01DX009 (ip), vehicle: Klucel (hydroxypropylcellulose) (HPC)) was 98 % of control.
For `COc1cccc2c1C(=O)c1c(O)c3c(c(O)c1C2=O)C[C@@](O)(C(=O)CO)C[C@@H]3OC1CC(OC(C)=O)C(OC(C)=O)C(C)O1` (stereo not given in full), the T/C (endpoint: mean survival time, dose: 1.56 mg/kg/injection, schedule: Q01DX009 (ip), vehicle: distilled water + Tween-80) was 115 % of control, the T/C (endpoint: mean survival time, dose: 3.12 mg/kg/injection, schedule: Q01DX009 (ip), vehicle: distilled water + Tween-80) was 122 % of control and the T/C (endpoint: mean survival time, dose: 6.25 mg/kg/injection, schedule: Q01DX009 (ip), vehicle: distilled water + Tween-80) was 167 % of control. For the same molecule, the T/C (endpoint: mean survival time, dose: 12.5 mg/kg/injection, schedule: Q01DX009 (ip), vehicle: distilled water + Tween-80) was 153 % of control and 203 % of control, the T/C (endpoint: mean survival time, dose: 25.0 mg/kg/injection, schedule: Q01DX009 (ip), vehicle: distilled water + Tween-80) was 93 % of control and 100 % of control and the T/C (endpoint: median survival time, dose: 1.56 mg/kg/injection, schedule: Q01DX009 (ip), vehicle: distilled water + Tween-80) was 113 % of control. The T/C (endpoint: median survival time, dose: 6.25 mg/kg/injection, schedule: Q01DX009 (ip), vehicle: distilled water + Tween-80) was 158 % of control and 176 % of control, the T/C (endpoint: median survival time, dose: 12.5 mg/kg/injection, schedule: Q01DX009 (ip), vehicle: distilled water + Tween-80) was 226 % of control and 250 % of control and the T/C (endpoint: median survival time, dose: 25.0 mg/kg/injection, schedule: Q01DX009 (ip), vehicle: distilled water + Tween-80) was 120 % of control and 95 % of control.
With `CC(C)(C)OC(=O)CCC(NC(=O)OC(C)(C)C)C(=O)O` (stereo not given) the T/C [1] was 98 % of control, the T/C [2] was 93 % of control and the T/C [3] was 95 % of control.
`CN(C)c1ccc(NC(=S)Nc2ccc(N(C)C)cc2)cc1` was tested, and the T/C (endpoint: mean survival time, dose: 25.0 mg/kg/injection, schedule: Q01DX001 (ip), vehicle: saline with Tween-80) was 97 % of control, the T/C (endpoint: mean survival time, dose: 50.0 mg/kg/injection, schedule: Q01DX001 (ip), vehicle: saline with Tween-80) was 102 % of control and the T/C [4] was 94 % of control.
For `CC12CCC3C(CCC4CCCCC43C)C1CC/C2=N\O` (stereo not given), the T/C (endpoint: mean survival time, dose: 100.0 mg/kg/injection, schedule: Q04DX003 (sc), vehicle: steriod suspending solution) was 96 % of control, the T/C (endpoint: mean survival time, dose: 200.0 mg/kg/injection, schedule: Q04DX003 (sc), vehicle: steriod suspending solution) was 104 % of control and the T/C (endpoint: mean survival time, dose: 400.0 mg/kg/injection, schedule: Q04DX003 (sc), vehicle: steriod suspending solution) was 89 % of control.
For `C/C=C/C=C\C=C/C(O)CC(OP(=O)(O)O)C(C)(O)/C=C/C1CC=CC(=O)O1` (stereo not given), the T/C (endpoint: median survival time, dose: 0.38 mg/kg/injection, schedule: Q01DX009 (ip), vehicle: water) was 116 % of control, the T/C (endpoint: median survival time, dose: 1.5 mg/kg/injection, schedule: Q01DX009 (ip), vehicle: water) was 180 % of control and the T/C (endpoint: median survival time, dose: 3.0 mg/kg/injection, schedule: Q01DX009 (ip), vehicle: water) was 153 % of control and 168 % of control. For the same molecule, the T/C (endpoint: median survival time, dose: 6.0 mg/kg/injection, schedule: Q01DX009 (ip), vehicle: water) was 120 % of control and 226 % of control.
In the case of `CC(=O)Nc1nnc(Cl)s1`, the T/C (endpoint: mean survival time, dose: 100.0 mg/kg/injection, schedule: Q04DX002 (ip), vehicle: saline) is reported as 101 % of control, the T/C (endpoint: mean survival time, dose: 200.0 mg/kg/injection, schedule: Q04DX002 (ip), vehicle: saline) is reported as 97 % of control and the T/C (endpoint: mean survival time, dose: 400.0 mg/kg/injection, schedule: Q04DX002 (ip), vehicle: saline) is reported as 104 % of control.
